Laboratory results reported in patent publication US20130030025A1, “USE OF POTASSIUM CHANNEL BLOCKERS TO TREAT CEREBRAL PALSY” (priority 2011, published 2013).
Values joined by “and” are separate entries in the source; they are usually repeats but may differ in a detail not shown here. Equal entries are not always repeated. “Also recorded” adds a separate entry of the source.

Assays:
[1] = tested on: middle cerebral artery occlusion (MCAO) in rats; assay: Hindlimb placing test after MCAO; format: in vivo, Sprague Dawley rats; design: Hindlimb Placing Total Score, Mean: scale not given here
Description: 4-AP was evaluated for its ability to promote functional sensorimotor improvement following ischemic stroke in rats with stable motor deficits at times remote from their ischemic events. The animal model mimics the conditions in human ischemic stroke and is produced by middle cerebral artery occlusion (MCAO), which results in extensive infarction in cerebral cortex and striatum, including the cortical spinal tract (white matter). In particular, the MCAO model in Sprague Dawley rats that was utilized in the experiments presented below mimics the conditions in human ischemic stroke. In this experiment, Sprague Dawley rats were anesthetized, subjected to a surgery resulting in middle cerebral artery occlusion (MCAO), treated with and without 4-aminopyridine and behavioral assessments were performed as described below. Surgical Procedure: A small focal stroke (infarct) was made on the right side of the surface of the brain (cerebral cortex) by middle cerebral artery occlusion (MCAO). The right side of the head was shaved with electric clippers (patch of approx 3×5 cm between eye and ear). The region was carefully cleaned with septisol. Using aseptic technique, an incision was made midway between the eye and eardrum canal. The temporalis muscle was isolated, bisected, and reflected. A small window of bone was removed via drill and rongeurs (subtemporal craniectomy) to expose the middle cerebral artery (MCA). Care was taken not to remove the zygomatic arch or to transect the facial nerve that would impair the ability of the animal to chew after surgery. […] The MCA was then transected. The temporalis muscle was then repositioned, and the incision was closed subcutaneously with sutures. The skin incision was closed with surgical staples (2-3 required). Throughout the procedure, body temperature was maintained at 37.0°±1° C., using a self-regulating heating pad connected to a rectal thermometer. Dosing: Rats were treated in accordance with the dosing schedule shown in Tables 1A, 1B, and FIG. 2, with each Phase being a two week period of time. A solution of 4-AP was used in this experiment. Dosing was started at 4 weeks after ischemic event. Treatment groups: Dosing was started 4 weeks after pMCAO surgery. During these 4 weeks, weekly behavioral assessments, as defined below, were performed. Two dose levels of 4-AP plus vehicle control were assessed, with treatment starting at 4 weeks after ischemic event. All dosing was via gastric gavage, volume not to exceed 2 mL/kg. Animals were given the first dose and behavioral assessments were performed starting 60 minutes after dosing. Animals then received the second dose that day at the appropriate time and b.i.d (preferably every 12 hours) thereafter for 2 more days (3 total days of dosing, 5 total doses). One hour after the 5th dose, animals were subjected to behavioral assessments as defined below. Following the final behavioral assessment, drug was withdrawn for 10 or 11 days, behavior was re-assessed, and then animals were re-challenged with a cross-over treatment (Phase II of Table 1B) as described in Tables 1A, 1B, followed by the same behavioral testing and dosing regimen. This cross-over was repeated one more time as well (Phase III of Table 1B) (see FIG. 2). Behavioral test details: Behavioral evaluations were done by investigators blinded to treatment assignment. As described above, behavioral assessments were timed exactly with dosing times. Animals were given the first dose, behavioral assessments were performed starting 60 minutes later, and blood was collected 90 minutes after dosing. Animals then received the second dose that day at the appropriate time and b.i.d (preferably every 12 hours) thereafter for 2 more days (3 total days of dosing, 5 total doses). One hour after the 5th dose, animals were subjected to behavioral testing. […]

[2] = Body weight of animals after MCAO; format: in vivo, Sprague Dawley rats
Description: Animals: 45 male Sprague Dawley Rats, 300-400 g (obtained from Charles River Laboratories, which arrived 7-10 days before surgery at 250-275 g) were used.
Treatment groups: Dosing was started 4 weeks after pMCAO surgery. During these 4 weeks, weekly behavioral assessments, as defined below, were performed. Two dose levels of 4-AP plus vehicle control were assessed, with treatment starting at 4 weeks after ischemic event. All dosing was via gastric gavage, volume not to exceed 2 mL/kg. Animals were given the first dose and behavioral assessments were performed starting 60 minutes after dosing. Animals then received the second dose that day at the appropriate time and b.i.d (preferably every 12 hours) thereafter for 2 more days (3 total days of dosing, 5 total doses). One hour after the 5th dose, animals were subjected to behavioral assessments as defined below. Following the final behavioral assessment, drug was withdrawn for 10 or 11 days, behavior was re-assessed, and then animals were re-challenged with a cross-over treatment (Phase II of Table 1B) as described in Tables 1A, 1B, followed by the same behavioral testing and dosing regimen. This cross-over was repeated one more time as well (Phase III of Table 1B) (see FIG. 2).

[3] = tested on: patients with multiple sclerosis; conditions: p<0.05; cited from earlier work

Nc1ccncc1 [4-AP, 4-aminopyridine]
Hindlimb Placing Total Score ([1]; Group II, D30, individual animals): 2.50 and 1.50 (4×) and 2.00 (3×) and 1.00 and 0.50 | Hindlimb Placing Total Score, Mean ([1]; Group II, D30, mean of N 15): 1.73 | Hindlimb Placing Total Score ([1]; Group II, D32, individual animals): 2.00 and 1.00 (3×) and 1.50 (5×) and 0.50 | Hindlimb Placing Total Score, Mean ([1]; Group II, D32, mean of N 15): 1.37 | Hindlimb Placing Total Score ([1]; Group II, D58, individual animals): 2.00 and 0.00 (4×) and 1.00 and 1.50 (3×) and 0.50 | Hindlimb Placing Total Score, Mean ([1]; Group II, D58, mean of N 15): 0.83 | Hindlimb Placing Total Score ([1]; Group II, D60, individual animals): 0.50 (3×) and 0.00 (6×) and 1.00 | Hindlimb Placing Total Score, Mean ([1]; Group II, D60, mean of N 15): 0.23 | Hindlimb Placing Total Score, Mean ([1]; Group III, D44, high dose phase (inferred), mean of N 15): 0.90 | Hindlimb Placing Total Score, Mean ([1]; Group III, D46, high dose phase (inferred), mean of N 15): 0.30 | Hindlimb Placing Total Score, Mean ([1]; Group III, D58, low dose phase (inferred), mean of N 15): 0.80 | Hindlimb Placing Total Score, Mean ([1]; Group III, D60, low dose phase (inferred), mean of N 15): 0.70 | Hindlimb Placing Total Score, Mean ([1]; group mean N=15, Group I, Phase 1, D30, High 4-AP 2.0 mg/kg b.i.d. p.o., after first dose): 1.67 | Hindlimb Placing Total Score, Mean ([1]; group mean N=15, Group I, Phase 1, D32, High 4-AP 2.0 mg/kg b.i.d. p.o., after 5th dose): 0.97 | Hindlimb Placing Total Score, Mean ([1]; group mean N=15, Group I, Phase 2, D44, Low 4-AP 0.63 mg/kg b.i.d. p.o., after first dose): 1.33 | Hindlimb Placing Total Score, Mean ([1]; group mean N=15, Group I, Phase 2, D46, Low 4-AP 0.63 mg/kg b.i.d. p.o., after 5th dose): 1.13 | Hindlimb Placing Total Score ([1]; individual animals, Group I, Phase 1, D30, High 4-AP 2.0 mg/kg b.i.d. p.o., 60 min after first dose, 0=normal, 6=maximally impaired): 1.50 (7×) and 3.00 (2×) and 2.50 (2×) and 2.00 and 1.00 and 0.00 and 0.50 | Hindlimb Placing Total Score ([1]; individual animals, Group I, Phase 1, D32, High 4-AP 2.0 mg/kg b.i.d. p.o., 1 h after 5th dose, 0=normal, 6=maximally impaired): 1.00 and 3.00 and 1.50 (6×) and 0.00 (4×) and 0.50 (3×) | Hindlimb Placing Total Score ([1]; individual animals, Group I, Phase 2, D44, Low 4-AP 0.63 mg/kg b.i.d. p.o., 60 min after first dose, 0=normal, 6=maximally impaired): 2.00 (4×) and 3.00 and 1.50 (3×) and 0.50 (2×) and 0.00 (3×) and 2.50 and 1.00 | Hindlimb Placing Total Score ([1]; individual animals, Group I, Phase 2, D46, Low 4-AP 0.63 mg/kg b.i.d. p.o., 1 h after 5th dose, 0=normal, 6=maximally impaired): 2.00 (3×) and 3.00 and 1.50 (4×) and 0.00 (4×) and 0.50 (2×) and 1.00 | effect on hindlimb function (hindlimb placing test) ([1]; low or high dose, 4 weeks post ischemic brain injury, rats, dose responsive, reversible): effective to improve hindlimb function; also recorded: significant improvement | Weight (g), Mean ([2]; Group I, D30, first dosing phase (high dose, inferred)): 453.1 g | Weight (g), Mean ([2]; Group I, D32, first dosing phase (high dose, inferred)): 436.3 g | Weight (g), Mean ([2]; Group I, D44, second dosing phase (low dose, inferred)): 476.2 g | Weight (g), Mean ([2]; Group I, D46, second dosing phase (low dose, inferred)): 471.1 g | Weight (g), Mean ([2]; Group II, D30, first dosing phase (low dose, inferred)): 446.0 g | Weight (g), Mean ([2]; Group II, D32, first dosing phase (low dose, inferred)): 438.1 g | Weight (g), Mean ([2]; Group II, D58, third dosing phase (high dose, inferred)): 500.9 g | Weight (g), Mean ([2]; Group II, D60, third dosing phase (high dose, inferred)): 483.0 g | Weight (g), Mean ([2]; Group III, D44, second dosing phase (high dose, inferred)): 471.9 g | Weight (g), Mean ([2]; Group III, D46, second dosing phase (high dose, inferred)): 451.0 g | Weight (g), Mean ([2]; Group III, D58, third dosing phase (low dose, inferred)): 494.9 g | Weight (g), Mean ([2]; Group III, D60, third dosing phase (low dose, inferred)): 485.1 g | leg strength (LEMMT) relative to placebo [3]: statistically significantly improved
